Activity calls are given as the source filed them.
Tests used:
[1] = viability loss in THP-1 monocytes – THP-1 cells, cytotoxicity control for Vif-APOBEC3G degradation inhibitor project, dose response (AID 1117359); format: functional; conditions: THP-1
[2] = target: T1, Apoptotic protease-activating factor 1 (Homo sapiens, UniProt O14727); format: functional
T1 sequence (O14727 whole entry): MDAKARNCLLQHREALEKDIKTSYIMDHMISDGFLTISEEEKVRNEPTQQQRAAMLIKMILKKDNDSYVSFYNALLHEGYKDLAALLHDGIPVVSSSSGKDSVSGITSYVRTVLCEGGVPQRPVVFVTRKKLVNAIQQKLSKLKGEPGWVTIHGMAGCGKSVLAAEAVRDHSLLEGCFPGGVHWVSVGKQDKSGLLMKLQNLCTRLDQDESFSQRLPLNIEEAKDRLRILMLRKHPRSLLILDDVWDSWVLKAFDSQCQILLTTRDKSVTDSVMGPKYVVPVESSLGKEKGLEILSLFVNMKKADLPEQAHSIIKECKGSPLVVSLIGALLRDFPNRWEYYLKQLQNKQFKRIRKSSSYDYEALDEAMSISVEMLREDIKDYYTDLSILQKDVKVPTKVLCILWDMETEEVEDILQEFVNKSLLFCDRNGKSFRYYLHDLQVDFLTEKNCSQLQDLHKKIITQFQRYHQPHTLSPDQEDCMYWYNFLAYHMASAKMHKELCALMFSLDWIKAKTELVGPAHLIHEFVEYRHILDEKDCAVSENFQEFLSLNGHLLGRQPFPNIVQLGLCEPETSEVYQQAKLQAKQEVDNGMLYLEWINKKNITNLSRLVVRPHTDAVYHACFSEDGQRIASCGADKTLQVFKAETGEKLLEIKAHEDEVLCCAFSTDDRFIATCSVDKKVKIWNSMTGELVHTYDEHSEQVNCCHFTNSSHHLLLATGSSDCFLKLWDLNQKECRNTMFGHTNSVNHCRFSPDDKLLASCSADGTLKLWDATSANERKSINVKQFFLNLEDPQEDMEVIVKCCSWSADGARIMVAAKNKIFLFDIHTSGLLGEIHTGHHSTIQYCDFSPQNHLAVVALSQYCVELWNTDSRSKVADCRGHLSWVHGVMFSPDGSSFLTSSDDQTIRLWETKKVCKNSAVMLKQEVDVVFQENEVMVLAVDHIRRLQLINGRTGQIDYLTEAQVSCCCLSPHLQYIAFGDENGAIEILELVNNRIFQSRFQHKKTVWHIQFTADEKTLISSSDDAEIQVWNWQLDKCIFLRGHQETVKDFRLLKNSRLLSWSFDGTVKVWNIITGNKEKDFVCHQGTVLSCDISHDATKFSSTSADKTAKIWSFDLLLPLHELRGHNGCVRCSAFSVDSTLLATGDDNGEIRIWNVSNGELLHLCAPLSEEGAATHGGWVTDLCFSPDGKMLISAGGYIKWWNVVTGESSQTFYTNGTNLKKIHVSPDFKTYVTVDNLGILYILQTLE

[3] = target: Induced myeloid leukemia cell differentiation protein Mcl-1 (Homo sapiens, UniProt Q07820); format: functional
Induced myeloid leukemia cell differentiation protein Mcl-1, sequence (Q07820 whole entry, the tested form may be a part): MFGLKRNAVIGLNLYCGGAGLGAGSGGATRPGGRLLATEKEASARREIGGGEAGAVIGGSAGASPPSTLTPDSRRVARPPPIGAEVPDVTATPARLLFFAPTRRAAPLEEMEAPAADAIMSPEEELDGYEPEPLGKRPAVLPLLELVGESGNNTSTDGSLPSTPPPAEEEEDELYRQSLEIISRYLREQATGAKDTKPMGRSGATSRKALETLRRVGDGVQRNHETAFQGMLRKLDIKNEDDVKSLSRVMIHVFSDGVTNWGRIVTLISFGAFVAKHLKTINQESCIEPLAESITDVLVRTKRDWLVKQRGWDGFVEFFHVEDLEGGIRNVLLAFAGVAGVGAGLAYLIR

[4] = target: T2, Polyadenylate-binding protein 1 (Homo sapiens, UniProt P11940); experiment: MLLE domain peptide-binding blockers, IC50 – biochemical, fluorescence polarization, FITC-PAM2 peptide, dose response (AID 602259); format: functional; conditions: read-out: IC50_Mean
T2 sequence (P11940 whole entry, the tested form may be a part): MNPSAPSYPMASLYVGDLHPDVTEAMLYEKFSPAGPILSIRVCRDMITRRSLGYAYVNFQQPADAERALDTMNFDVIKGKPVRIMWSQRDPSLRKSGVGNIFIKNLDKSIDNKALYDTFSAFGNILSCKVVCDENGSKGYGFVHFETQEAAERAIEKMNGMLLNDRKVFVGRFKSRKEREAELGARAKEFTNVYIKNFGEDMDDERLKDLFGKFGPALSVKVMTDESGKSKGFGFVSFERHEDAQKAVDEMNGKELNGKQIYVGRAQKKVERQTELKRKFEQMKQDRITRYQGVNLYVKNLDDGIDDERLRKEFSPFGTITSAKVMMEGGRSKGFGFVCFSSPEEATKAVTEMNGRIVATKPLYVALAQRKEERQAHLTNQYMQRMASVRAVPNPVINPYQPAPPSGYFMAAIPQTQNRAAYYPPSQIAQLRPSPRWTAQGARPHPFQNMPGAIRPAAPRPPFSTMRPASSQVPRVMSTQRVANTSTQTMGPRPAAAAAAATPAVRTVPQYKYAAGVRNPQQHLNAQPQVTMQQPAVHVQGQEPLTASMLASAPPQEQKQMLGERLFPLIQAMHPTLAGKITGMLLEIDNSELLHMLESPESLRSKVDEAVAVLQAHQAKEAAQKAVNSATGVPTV

[5] = target: T2, Polyadenylate-binding protein 1; experiment: MLLE binding blockers, Cy5 peptide tracer – biochemical, fluorescence polarization, Cy5-PAM2 peptide, secondary, miRNA deadenylation inhibitor project, dose response (AID 602260); format: functional; conditions: read-out: IC50_Mean
Cytochrome P450 2C9 = Cytochrome P450 2C9 (Homo sapiens, UniProt P11712)
Cytochrome P450 2C9, sequence (P11712 whole entry): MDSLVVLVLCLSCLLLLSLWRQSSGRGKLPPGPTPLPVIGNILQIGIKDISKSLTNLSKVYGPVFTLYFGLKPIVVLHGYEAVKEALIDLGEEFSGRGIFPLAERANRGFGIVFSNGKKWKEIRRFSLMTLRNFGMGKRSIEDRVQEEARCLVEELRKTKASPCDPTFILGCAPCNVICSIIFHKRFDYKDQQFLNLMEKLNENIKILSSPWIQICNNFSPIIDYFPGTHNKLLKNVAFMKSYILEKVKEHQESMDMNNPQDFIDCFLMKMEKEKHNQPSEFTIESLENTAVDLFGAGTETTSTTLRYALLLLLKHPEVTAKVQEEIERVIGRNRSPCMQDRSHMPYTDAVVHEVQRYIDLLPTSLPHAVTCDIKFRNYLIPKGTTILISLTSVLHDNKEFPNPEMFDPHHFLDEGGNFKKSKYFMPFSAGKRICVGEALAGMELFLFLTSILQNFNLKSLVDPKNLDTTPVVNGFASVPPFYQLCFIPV

[6] = target: DNA dC->dU-editing enzyme APOBEC-3G (Homo sapiens, UniProt Q9HC16); experiment: inhibition of APOBEC3G ssDNA deamination – biochemical, fluorescence, single-stranded DNA substrate, SAR follow-up (AID 602136); format: functional; conditions: read-out: IC50_Mean
DNA dC->dU-editing enzyme APOBEC-3G, sequence (Q9HC16 whole entry): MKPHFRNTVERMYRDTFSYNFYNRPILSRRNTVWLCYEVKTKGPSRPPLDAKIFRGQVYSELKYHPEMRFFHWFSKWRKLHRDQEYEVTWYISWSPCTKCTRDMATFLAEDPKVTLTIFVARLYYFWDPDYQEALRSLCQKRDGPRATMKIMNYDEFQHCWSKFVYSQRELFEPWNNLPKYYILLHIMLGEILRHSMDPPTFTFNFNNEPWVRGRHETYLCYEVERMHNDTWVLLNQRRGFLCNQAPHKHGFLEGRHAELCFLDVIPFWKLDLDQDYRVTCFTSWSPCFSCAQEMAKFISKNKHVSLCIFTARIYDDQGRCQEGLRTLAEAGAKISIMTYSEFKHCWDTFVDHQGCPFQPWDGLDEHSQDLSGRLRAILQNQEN

[7] = target: DNA dC->dU-editing enzyme APOBEC-3A (Homo sapiens, UniProt P31941); experiment: SAR analysis of small molecule inhibitors of APOBEC3A DNA Deaminase via a fluorescence-based single-stranded DNA deaminase assay.; format: functional; conditions: read-out: IC50_Mean
DNA dC->dU-editing enzyme APOBEC-3A, sequence (P31941 whole entry): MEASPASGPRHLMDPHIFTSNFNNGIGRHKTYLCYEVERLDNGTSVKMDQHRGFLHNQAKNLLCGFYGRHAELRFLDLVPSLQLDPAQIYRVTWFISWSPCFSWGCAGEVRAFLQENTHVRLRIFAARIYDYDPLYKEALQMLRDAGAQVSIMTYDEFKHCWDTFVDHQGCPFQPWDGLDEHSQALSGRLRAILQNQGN

[8] = target: T3, Methionyl-tRNA synthetase, putative (Trypanosoma brucei brucei, UniProt Q38C91); format: functional, Trypanosoma brucei brucei strain 927/4 GUTat10.1
T3 sequence (Q38C91 whole entry): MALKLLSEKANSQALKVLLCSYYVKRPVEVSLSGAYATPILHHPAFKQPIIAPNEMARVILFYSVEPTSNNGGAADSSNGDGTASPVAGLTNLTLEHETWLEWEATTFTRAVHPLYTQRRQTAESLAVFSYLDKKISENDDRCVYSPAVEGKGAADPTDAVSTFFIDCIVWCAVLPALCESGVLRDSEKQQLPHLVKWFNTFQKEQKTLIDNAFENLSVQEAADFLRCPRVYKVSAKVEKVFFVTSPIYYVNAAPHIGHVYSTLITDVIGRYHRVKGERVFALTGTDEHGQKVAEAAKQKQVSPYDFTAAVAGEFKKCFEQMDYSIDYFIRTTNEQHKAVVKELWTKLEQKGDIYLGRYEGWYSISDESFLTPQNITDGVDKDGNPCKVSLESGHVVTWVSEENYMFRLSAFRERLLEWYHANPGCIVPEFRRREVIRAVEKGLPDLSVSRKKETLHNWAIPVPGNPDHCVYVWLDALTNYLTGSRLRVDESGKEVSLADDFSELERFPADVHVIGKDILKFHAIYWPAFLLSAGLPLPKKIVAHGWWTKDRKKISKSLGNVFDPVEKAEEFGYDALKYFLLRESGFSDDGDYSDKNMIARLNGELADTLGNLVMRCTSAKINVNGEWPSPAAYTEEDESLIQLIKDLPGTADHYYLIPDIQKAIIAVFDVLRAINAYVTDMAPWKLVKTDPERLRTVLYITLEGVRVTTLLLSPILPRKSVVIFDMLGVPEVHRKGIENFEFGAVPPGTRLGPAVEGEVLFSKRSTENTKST

[9] = Counterscreen for inhibitors of Trypanosoma brucei methionyl tRNA synthetase (MetRS): Luminescence-based cell-based high throughput dose response assay to identify compounds that are cytotoxic to Jurkat human T lymphocyte cells.; format: functional
[10] = target: T3, Methionyl-tRNA synthetase, putative; format: functional, Trypanosoma brucei brucei strain 927/4 GUTat10.1; remark: listed apart in the source
Streptokinase A = target: T4, Streptokinase A (Streptococcus pyogenes serotype M1, UniProt P10520); experiment: viability-normalized secreted streptokinase activity reduction – plasminogen activation absorbance, OD405, dose response (AID 1914); format: functional, Streptococcus pyogenes M1 GAS;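 also: secreted streptokinase activity via plasminogen activation per viability signal from cell pellet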
T4 sequence (P10520 whole entry): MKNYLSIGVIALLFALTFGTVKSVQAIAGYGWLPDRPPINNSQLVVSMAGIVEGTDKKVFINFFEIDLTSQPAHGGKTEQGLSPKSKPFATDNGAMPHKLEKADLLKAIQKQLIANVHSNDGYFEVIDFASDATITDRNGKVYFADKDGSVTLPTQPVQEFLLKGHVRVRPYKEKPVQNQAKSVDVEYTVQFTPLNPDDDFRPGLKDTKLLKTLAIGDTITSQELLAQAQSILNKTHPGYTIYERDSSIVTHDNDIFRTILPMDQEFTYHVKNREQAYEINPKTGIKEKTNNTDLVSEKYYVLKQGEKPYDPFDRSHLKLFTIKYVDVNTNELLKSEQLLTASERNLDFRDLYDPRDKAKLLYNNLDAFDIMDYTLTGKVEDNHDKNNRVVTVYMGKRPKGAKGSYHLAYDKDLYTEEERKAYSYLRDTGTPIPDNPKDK

Streptococcus = experiment: GAS UMAA2166 growth inhibition – luminescence, BacTiterGlo, counter-screen for streptokinase expression inhibitor project, dose response (AID 1915); format: functional, organism-based;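 also: potency for reduction of bacterial viability or growth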
[11] = tested on: Streptococcus sp. 'group A'; experiment: Streptococcus pyogenes SK(-)GAS viability under kanamycin – luminescence, BacTiterGlo, confirmation, counter-screen for streptokinase expression inhibitor project, dose response (AID 1900); format: functional, organism-based
[12] = target: T5, DNA repair and recombination protein RAD54-like (Homo sapiens, UniProt Q92698); experiment: RAD54 Holliday junction migration blockers – biochemical, fluorescence, cherry-picked samples, dose series, confirmation (AID 651657); format: functional
T5 sequence (Q92698 whole entry): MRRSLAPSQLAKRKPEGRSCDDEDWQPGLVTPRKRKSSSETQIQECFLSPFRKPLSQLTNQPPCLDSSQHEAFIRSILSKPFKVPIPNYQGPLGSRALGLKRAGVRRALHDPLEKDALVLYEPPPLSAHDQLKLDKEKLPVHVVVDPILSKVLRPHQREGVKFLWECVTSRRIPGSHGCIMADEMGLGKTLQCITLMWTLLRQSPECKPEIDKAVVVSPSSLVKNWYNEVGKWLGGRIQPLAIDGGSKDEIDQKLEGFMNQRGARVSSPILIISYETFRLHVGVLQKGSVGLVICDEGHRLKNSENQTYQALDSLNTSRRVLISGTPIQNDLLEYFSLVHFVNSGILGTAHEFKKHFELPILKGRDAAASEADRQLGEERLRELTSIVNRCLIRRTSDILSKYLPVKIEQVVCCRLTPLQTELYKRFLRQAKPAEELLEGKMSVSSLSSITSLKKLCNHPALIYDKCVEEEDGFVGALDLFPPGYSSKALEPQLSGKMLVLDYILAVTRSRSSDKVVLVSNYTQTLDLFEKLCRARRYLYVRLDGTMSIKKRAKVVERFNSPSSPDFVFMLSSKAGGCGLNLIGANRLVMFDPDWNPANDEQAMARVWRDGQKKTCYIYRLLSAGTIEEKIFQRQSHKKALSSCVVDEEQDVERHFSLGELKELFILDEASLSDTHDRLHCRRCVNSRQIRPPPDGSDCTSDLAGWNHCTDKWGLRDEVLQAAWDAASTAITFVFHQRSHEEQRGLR

[13] = target: T6, DNA repair protein RAD52 homolog (Homo sapiens, UniProt P43351); format: functional, biochemical
T6 sequence (P43351 whole entry): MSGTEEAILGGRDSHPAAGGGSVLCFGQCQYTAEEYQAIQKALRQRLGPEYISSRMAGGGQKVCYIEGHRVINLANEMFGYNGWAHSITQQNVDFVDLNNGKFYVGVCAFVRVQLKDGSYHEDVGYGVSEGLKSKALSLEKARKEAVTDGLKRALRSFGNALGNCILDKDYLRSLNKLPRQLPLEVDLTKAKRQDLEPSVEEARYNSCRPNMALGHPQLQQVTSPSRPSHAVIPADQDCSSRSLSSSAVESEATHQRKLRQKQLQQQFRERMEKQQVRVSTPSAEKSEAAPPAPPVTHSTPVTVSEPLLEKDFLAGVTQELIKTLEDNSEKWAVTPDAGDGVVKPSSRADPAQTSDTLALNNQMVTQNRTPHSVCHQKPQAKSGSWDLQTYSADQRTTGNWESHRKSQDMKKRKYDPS

Compound: COc1ccc2c(c1)c1ccc3c(c1n2C)C(=O)C=CC3=O
- CC50 [1]: 18 µM (active)
- IC50 [2]: 19.3 µM (active)
- IC50 [3]: 0.946 µM (active)
- IC50 [4]: 58.5 µM (inactive)
- IC50 [5]: > 66 µM (inactive)

Compound: C#CCSc1nnc(-c2cc3c(C(F)(F)F)nn(C)c3s2)n1C
- AC50 (Cytochrome P450 2C9): inconclusive
- IC50 [6]: > 99 µM (inactive)
- IC50 [7]: > 99 µM (inactive)

Compound: COc1cc(CNc2[nH]cnc3c4cc(C)ccc4nc2-3)cc(OC)c1
- IC50 [8]: 2.32 µM (active)
- IC50 [9]: 27.8 µM (inactive)
- IC50 [10]: 1.46 µM (active)

Compound: S=C(NCc1cccs1)Nc1cc(Cl)cc(Cl)c1
- IC50 [8]: 24.6 µM (inactive)
- IC50 [9]: 34.5 µM (inactive)
- IC50 [10]: 104 µM (inactive)
- EC50 (Streptokinase A): > 150 µM (not active)
- EC50 (Streptococcus): 13.7 µM (active)
- EC50 [11]: 5.49 µM (active)

Compound: Cc1cccn2c(=O)c3cc(C(=O)NCCN4CCOCC4)c(=N)n(CCN4CCOCC4)c3nc12
- AC50 [12]: 15.9 µM (active)
- AC50 [13]: 13.7 µM (active)

Source: ChEMBL document CHEMBL1201862, “PubChem BioAssay data set” (2004)
